# Laboratory results: US20030187048A1, “Method for inhibiting skin lesion formation using histamine as the active ingredient” (priority 1991, published 2003)
# Where “and” joins values, the source holds several entries; their conditions need not be identical. Equal entries are not always repeated. Where two headings read alike, the source gives them in different places.
# Key:
# [1] = system: oral mucositis (stomatitis) secondary to chemotherapy; settings: for Mean % Reduction In Symptom (discomfort with food/drink) / Mean Percent Reduction From Original Per Day / Mean % Reduction In Symptom: group mean
# Source text: Prospective subjects were considered for the study if their mucositis (stomatitis) was diagnosed by their oncologist as secondary to their chemotherapy and if their oncologist recommended them as candidates for the study.
# Patients were randomly assigned to one of three active ingredient levels being evaluated.
# Following diagnosis and recommendation of oral mucositis patients by their oncologists, qualified participants were instructed to topically, intraorally apply one teaspoonful of their respective, randomly assigned gel by swishing and holding the gel in their mouth for 2 minutes and then expectorating the gel.
# Evaluation of the extent of the oral mucous membrane involvement was based on each patient's estimate of this involvement (as a percentage) of the entire oral mucous membranes and each patient was contacted daily for this estimate as well as his or her estimate of the symptomatic relief of 5 common oral symptoms associated with mucositis (stomatitis) secondary to chemotherapy. In an attempt to quantify responses, patients were asked to rate each symptom each day an a scale of 0 to 5 with 0 representing no evidence of the symptom and 5 representing the worst or most vi prominent evidence of the symptom ever for the patient.
# Patient compliance with the study regimen and the use of other medications or treatments was also evaluated.
# [2] = system: thermal burn injuries; settings: for Height in mm of Blister / Height in mm of Swelling of Soft Tissue Surrounding Burn Site / Subjective Evaluation of Tenderness on Palpations (rated 0 to 5) / Zone of Erythema Surrounding Burn Site (mm): per burn site
# [3] = system: herpes zoster (shingles) lesions; settings: for Burning score / Local pain score: […] IEP gel, scale 0 to 5
# Method: The percent reduction in complete healing time as compared to a usual episode was evaluated comparing the two patients who received active gel concentrations to the two patients receiving placebo gel. […] Subjects were assigned randomly to one of two active ingredient levels being evaluated, 0.0% and 0.015% by weight of active ingredient.
# Each patient was contacted weekly for his or her estimate of the symptomatic relief of 2 common symptoms associated with herpes zoster (shingles) as well as the patient's interpretation of total healing of the episode. In an attempt to quantify responses, patients were asked to rate each symptom on a scale of 0 to 5 with 0 representing no evidence of the symptom and 5 representing the worst or most prominent evidence of the symptom ever for the patient. Subject compliance with the study regimen and the use of other medications was also assessed.
# [4] = system: Varicella zoster (chickenpox) lesions; settings: for Mean % Reduction In Healing Time per Lesion: compared to placebo gel; for Itching score / Local pain score: scale 0 to 5; for Mean Time to Lesion Healing: placebo patients 7 days
# Method: Treatment consisted of topical application three times a day for a period of five days. […] The mean percent reduction in complete healing time per average pox lesion was evaluated grouping the two patients who received active gel concentrations together and comparing to the two patients receiving placebo gel.
# Subjects were assigned randomly to one of three active ingredient levels being evaluated, 0.0%, 0.0067% and G.009% by weight of active ingredient.
# Each patient was contacted daily for 5 days for his or her estimate of the symptomatic relief of any symptoms associated with Varicella zoster (chickenpox) as well as the patient's interpretation of total healing of the episode in addition to the patient's description of the lesions present. In an attempt to quantify responses, patients were asked to rate each symptom each day on a scale of 0 to 5 with 0 representing no evidence of the symptom and 5 representing to worst or most prominent evidence of the symptom ever for the patient. Subject compliance with the study regimen and the use of other medications was also assessed.
# Lesions were monitored for the usual progression of the typical stages seen with Varicella zoster. Typical chickenpox begins as crops of small, red papules that almost immediately develop into clear, “tear drop” vesicles on an erythematous base which are usually not umbilicated. The lesions initially contain clear fluid, but within 24 hours the contents become cloudy. once this occurs, the vesicles are easily broken and become scabbed. Successive crops of lesions appear for 3 to 4 days.
# [5] = system: active herpes labialis lesions; settings: 0.0275% gel
# Source text: An additional gel concentration (0.0275%) was' used on two patients for active herpes labialis lesions.
# [6] = 0.0045% gel, from greatest value of that burn site
# [7] = 0.009% gel, from greatest value of that burn site
smiles,measurement,setting,value
"NCCc1c[nH]cn1 [IEP, 1H-imidazole-4-ethanamine,phosphate]",Mean % Reduction In Symptom (discomfort with food/drink),[1]; 0.0045% IEP gel,55.6%
same,Mean Percent Reduction From Original Involvement Per Day,"[1]; 0.0045% IEP gel, per patient",33.3% and 18.0% and 25.0%
same,Percent of Mouth that Lesions Occupy,"[1]; 0.0045% gel, Day 4, per patient",0% and 25% and 1%
same,Percent of Mouth that Lesions Occupy,"[1]; 0.0045% gel, Day 5, per patient",0%
same,Percent of Mouth that Lesions Occupy,"[1]; 0.0045% gel, Day 6, per patient",0% (2×) and 5%
same,Percent of Mouth that Lesions Occupy,"[1]; 0.0045% gel, Day 7, per patient",0%
same,Mean Percent Reduction From Original Per Day,[1]; 0.0045% gel,25.4%
same,Mean % Reduction In Symptom (discomfort with food/drink),[1]; 0.0275% IEP gel,52.8%
same,Mean Percent Reduction From Original Involvement Per Day,"[1]; 0.0275% IEP gel, per patient",50.0% and 33.3% (2×)
same,Percent of Mouth that Lesions Occupy,"[1]; 0.0275% gel, Day 1 of treatment, per patient",50% and 25% (2×)
same,Percent of Mouth that Lesions Occupy,"[1]; 0.0275% gel, Day 2, per patient",30% and 25% (2×)
same,Percent of Mouth that Lesions Occupy,"[1]; 0.0275% gel, Day 3, per patient",25% (2×) and 0%
same,Percent of Mouth that Lesions Occupy,"[1]; 0.0275% gel, Day 4, per patient",0%
same,Percent of Mouth that Lesions Occupy,"[1]; 0.0275% gel, Day 5, per patient",0%
same,Percent of Mouth that Lesions Occupy,"[1]; 0.0275% gel, Day 6, per patient",0%
same,Percent of Mouth that Lesions Occupy,"[1]; 0.0275% gel, Day 7, per patient",0%
same,Mean Percent Reduction From Original Per Day,[1]; 0.0275% gel,38.9%
same,Difference in reduction of oral mucous membrane involvement vs placebo,"[1]; 0.0275% vs placebo, p<.O1",highly statistically significant
same,Mean % Reduction In Symptom,"[1]; Table 9.7, 0.0045% gel",58.3%
same,Mean % Reduction In Symptom,"[1]; Table 9.7, 0.0275% gel",83.3%
same,Mean Percent Reduction Per Day in Discomfort with Food/Drink,"[1]; Table 9.7, 0.0275% gel, per patient",100.0% (2×) and 50.0%
same,Untoward effects,[1]; in vivo,no untoward effects
same,Height in mm of Blister,"[2]; 0.0045% gel, 3.5 hours",3 mm and 2 mm
same,Height in mm of Swelling of Soft Tissue Surrounding Burn Site,"[2]; 0.0045% gel, 3.5 hours",1 mm
same,Subjective Evaluation of Tenderness on Palpations (rated 0 to 5),"[2]; 0.0045% gel, 3.5 hours",3 and 5
same,Zone of Erythema Surrounding Burn Site (mm),"[2]; 0.0045% gel, 3.5 hours",8 mm and 4 mm
same,Height in mm of Blister,"[2]; 0.0045% gel, 8 hours",2.5 mm and 1.5 mm
same,Height in mm of Swelling of Soft Tissue Surrounding Burn Site,"[2]; 0.0045% gel, 8 hours",1 mm
same,Subjective Evaluation of Tenderness on Palpations (rated 0 to 5),"[2]; 0.0045% gel, 8 hours",2 and 4
same,Zone of Erythema Surrounding Burn Site (mm),"[2]; 0.0045% gel, 8 hours",6 mm and 3 mm
same,Height in mm of Blister,"[2]; 0.0045% gel, 22 hours",1.5 mm and 1 mm
same,Subjective Evaluation of Tenderness on Palpations (rated 0 to 5),"[2]; 0.0045% gel, 22 hours",2 and 4
same,% Reduction in Tissue Damage at 22 Hours: Height of Blister,[2]; [6],50.0%
same,% Reduction in Tissue Damage at 22 Hours: Swelling of Surrounding Tissue,[2]; [6],100.0% and 50.0%
same,% Reduction in Tissue Damage at 22 Hours: Zone of Erythema (mm),[2]; [6],66.7% and 81.3%
same,Height in mm of Blister,"[2]; 0.009% gel, 3.5 hours",2 mm
same,Height in mm of Swelling of Soft Tissue Surrounding Burn Site,"[2]; 0.009% gel, 3.5 hours",1 mm
same,Subjective Evaluation of Tenderness on Palpations (rated 0 to 5),"[2]; 0.009% gel, 3.5 hours",2 and 3
same,Zone of Erythema Surrounding Burn Site (mm),"[2]; 0.009% gel, 3.5 hours",6 mm and 4 mm
same,Height in mm of Blister,"[2]; 0.009% gel, 8 hours",1 mm
same,Height in mm of Swelling of Soft Tissue Surrounding Burn Site,"[2]; 0.009% gel, 8 hours",0 mm
same,Subjective Evaluation of Tenderness on Palpations (rated 0 to 5),"[2]; 0.009% gel, 8 hours",2
same,Zone of Erythema Surrounding Burn Site (mm),"[2]; 0.009% gel, 8 hours",4 mm and 3 mm
same,Height in mm of Swelling of Soft Tissue Surrounding Burn Site,"[2]; 0.009% gel, 22 hours",0 mm
same,Subjective Evaluation of Tenderness on Palpations (rated 0 to 5),"[2]; 0.009% gel, 22 hours",1
same,Zone of Erythema Surrounding Burn Site (mm),"[2]; 0.009% gel, 22 hours",2 mm
same,% Reduction in Tissue Damage at 22 Hours: Height of Blister,[2]; [7],75.0% and 100.0%
same,% Reduction in Tissue Damage at 22 Hours: Swelling of Surrounding Tissue,[2]; [7],100.0%
same,% Reduction in Tissue Damage at 22 Hours: Tenderness on Palpation,[2]; [7],80.0%
same,% Reduction in Tissue Damage at 22 Hours: Zone of Erythema (mm),[2]; [7],77.8% and 75.0%
same,Difference in tissue damage parameters vs placebo,"[2]; 0.009% vs placebo, p<.O1 for 3 of the 4 parameters, fourth p<0.05",highly significant
same,Untoward events or significant complications,[2]; in vivo,no untoward events or significant complications
same,Burning score,[3]; week 2,3
same,Local pain score,[3]; week 2,2
same,Burning score,[3]; week 3,0
same,Local pain score,[3]; week 3,0
same,Burning score,[3]; week 4,0
same,Local pain score,[3]; week 4,0
same,Burning score,[3]; week 5,0
same,Local pain score,[3]; week 5,0
same,Difference in percent reduction in complete healing time vs placebo,"[3]; […] gel, p<0.05",significant
same,Untoward reactions,"[3]; topical gel […], three times a day",no untoward reactions
same,Mean % Reduction In Healing Time per Lesion,[4]; 0.0067% IEP gel,50.0%
same,Itching score,"[4]; 0.0067% IEP gel, day 1",2
same,Local pain score,"[4]; 0.0067% IEP gel, day 1",2
same,Itching score,"[4]; 0.0067% IEP gel, day 2",0
same,Local pain score,"[4]; 0.0067% IEP gel, day 2",1
same,Itching score,"[4]; 0.0067% IEP gel, day 3",0
same,Local pain score,"[4]; 0.0067% IEP gel, day 3",0
same,Itching score,"[4]; 0.0067% IEP gel, day 4",0
same,Local pain score,"[4]; 0.0067% IEP gel, day 4",0
same,Itching score,"[4]; 0.0067% IEP gel, day 5",0
same,Local pain score,"[4]; 0.0067% IEP gel, day 5",0
same,Mean Time to Lesion Healing,[4]; 0.0067% gel,3.5 days
same,Mean % Reduction In Healing Time per Lesion,[4]; 0.009% IEP gel,64.28%
same,Itching score,"[4]; 0.009% IEP gel, day 1",2
same,Local pain score,"[4]; 0.009% IEP gel, day 1",3
same,Itching score,"[4]; 0.009% IEP gel, day 2",0
same,Local pain score,"[4]; 0.009% IEP gel, day 2",1
same,Itching score,"[4]; 0.009% IEP gel, day 3",0
same,Local pain score,"[4]; 0.009% IEP gel, day 3",0
same,Itching score,"[4]; 0.009% IEP gel, day 4",0
same,Local pain score,"[4]; 0.009% IEP gel, day 4",0
same,Itching score,"[4]; 0.009% IEP gel, day 5",0
same,Local pain score,"[4]; 0.009% IEP gel, day 5",0
same,Mean Time to Lesion Healing,[4]; 0.009% gel,2.5 days
same,Difference in mean percent reduction in complete healing time per lesion vs placebo,"[4]; combined 0.0067% and 0.009% groups, p<0.05",significant
same,Progression of lesion stages,[4]; lesions treated with 0.0067% and 0.009% gel,did not progress through the usual progression of lesions stages
same,Untoward reactions,"[4]; topical gel 0.0067%, 0.009%, three times a day for five days",no untoward reactions
same,Difference in lesion decay rates vs placebo gel,[5]; p<0.05,statistically significant
same,Standardized Decay Rate/24 hrs,[5]; per patient,56.55 and 36.36
